In patent publication US20260152487A1 (Sitryx Therapeutics Limited, priority 2021, published 2026):

Molecular target: T1, recombinant human PKM2 (Homo sapiens, UniProt P14618)
T1 construct: His (N); purchased R&D Systems
Assay: Human PKM2 activation assay (Kinase-Glo Plus luminescent detection of generated ATP)
Format: biochemical
Conditions: for Emax: percentage activation normalised to DMSO vehicle (LOW) and 5 μM TEPP-46 (HIGH), read-out: hPKM2 Emax; for EC50: recombinant human PKM2 activation, 4-parameter logistic fit, read-out: hPKM2 EC50
Protocol: Compound activation of recombinant human PKM2 pyruvate kinase activity was determined by biochemical assay. N-terminal His-tagged hPKM2 was sourced from R&D Systems and its substrates phosphoenolpyruvate (PEP) and ADP from Sigma-Aldrich and 2Bscientific Ltd, respectively. The Kinase-Glo® Plus luminescence assay was from Promega. All other reagents were from Sigma-Aldrich. Test Compounds were prepared as 10 mM DMSO stocks and dilution series prepared in DMSO for direct dilution into Assay Buffer comprising 50 mM imidazole, 50 mM KCl, 7 mM MgCl2, 0.01% Tween20, 0.05% BSA (pH 7.2).
Human PKM2 was diluted into Assay Buffer comprising 50 mM imidazole, 50 mM KCl, 7 mM MgCl2, 0.01% Tween20, 0.05% BSA (pH 7.2) to a final concentration of […]. Enzyme-Assay Buffer mix was dispensed into a 384-well shallow-well white-walled plate (PerkinElmer) and Test Compounds added by acoustic dispense (Echo®, Labcyte Inc.).
After 60 minutes' incubation on an orbital shaker (300 rpm, 26° C.), enzyme activity was quantified by the luminescent detection of generated ATP. Kinase-Glo® Plus reagent was added to each well and the plates incubated for a further 15 minutes on an orbital shaker in the dark (300 rpm, 26° C.) before luminescence measurement on a plate reader (PHERAstar® FSX, BMG Labtech).
Percentage activation was calculated by normalising […] signals to plate LOW (DMSO vehicle) and HIGH (5 μM TEPP-46) controls. EC50 and Emax values were determined from 4-parameter logistic fits of compound concentration-response curves.

T1 sequence (P14618 2-531 limits assumed): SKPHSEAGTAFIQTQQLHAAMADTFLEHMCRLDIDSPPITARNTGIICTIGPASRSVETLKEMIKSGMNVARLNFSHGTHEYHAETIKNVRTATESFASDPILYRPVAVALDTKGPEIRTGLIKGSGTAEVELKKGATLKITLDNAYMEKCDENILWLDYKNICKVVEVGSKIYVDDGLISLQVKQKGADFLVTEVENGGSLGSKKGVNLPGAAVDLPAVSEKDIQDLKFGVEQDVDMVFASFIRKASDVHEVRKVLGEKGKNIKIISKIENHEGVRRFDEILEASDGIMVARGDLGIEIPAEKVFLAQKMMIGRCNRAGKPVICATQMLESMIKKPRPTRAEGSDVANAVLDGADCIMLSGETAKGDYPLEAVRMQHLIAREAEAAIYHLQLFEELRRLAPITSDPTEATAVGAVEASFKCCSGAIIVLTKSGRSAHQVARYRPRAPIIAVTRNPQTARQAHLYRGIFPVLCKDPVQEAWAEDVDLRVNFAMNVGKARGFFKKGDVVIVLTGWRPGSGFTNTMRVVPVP

| SMILES | Emax | EC50 |
| --- | --- | --- |
| Cc1ccc(S(=O)(=O)c2ccc3c(=O)n(Cc4cc[nH]n4)ncc3c2)cn1 [Example 290, 2-((1H-pyrazol-3-yl)methyl)-6-((6-methylpyridin-3-yl)sulfonyl)phthalazin-1(2H)-one] | 106% | 594 nM |
| COc1ccc(Cn2ncc3cc(S(=O)(=O)c4ccsc4C(N)=O)ccc3c2=O)cn1 [Example 117, 3-(2-((6-methoxypyridin-3-yl)methyl)-1-oxo-1,2-dihydrophthalazin-6-ylsulfonyl)thiophene-2-carboxamide] | 77% | 177 nM |
| COc1ccc(Cn2ncc3cc(S(=O)(=O)c4ccc5c(c4)OC(F)(F)O5)ccc3c2=O)cn1 [Example 156] | 88.7% | 91 nM |
| COc1ncccc1Cn1ncc2cc(S(=O)(=O)c3ccccc3)ccc2c1=O [Example 88, 2-((2-methoxypyridin-3-yl)methyl)-6-(phenylsulfonyl)phthalazin-1(2H)-one] | 93.2% | 618 nM |
| COc1ccc(S(=O)(=O)c2ccc3c(=O)n(Cc4cccc(N)c4)ncc3c2)cn1 [Example 149, 2-(3-aminobenzyl)-6-((6-methoxypyridin-3-yl)sulfonyl)phthalazin-1(2H)-one] | 100% | 54.6 nM |
| N=[S@](=O)(c1cn[nH]c1)c1ccc2c(=O)n(Cc3ccc4c(n3)CCO4)ncc2c1 (stereo in doubt) [Example 363] | 105% | 128 nM |
| O=c1c2ccc(S(=O)(=O)c3cc[nH]n3)cc2cnn1Cc1ccc2occc2n1 [Example 335] | 113% | 14.2 nM |
| O=c1c2ccc(S(=O)(=O)c3ccn(CCO)n3)cc2cnn1Cc1cccnc1O [Example 237, 6-(1-(2-hydroxyethyl)-1H-pyrazol-3-ylsulfonyl)-2-((2-hydroxypyridin-3-yl)methyl)phthalazin-1(2H)-one] | 80.7% | 582 nM |
| COc1ccc(Cn2ncc3cc(S(=O)(=O)c4cccc(C)n4)ccc3c2=O)cn1 [Example 169, 2-((6-methoxypyridin-3-yl)methyl)-6-(6-methylpyridin-2-ylsulfonyl)phthalazin-1(2H)-one] | 83% | 185 nM |
| Cc1cccc(Cn2ncc3cc(S(=O)(=O)c4cnn(C)c4)ccc3c2=O)n1 [Example 204, 6-((1-methyl-1H-pyrazol-4-yl)sulfonyl)-2-((6-methylpyridin-2-yl)methyl)phthalazin-1(2H)-one] | 122% | 282 nM |
| COc1ccc(S(=O)(=O)c2ccc3c(=O)n(Cc4ccn(CCO)n4)ncc3c2)nc1 [Example 292, 2-((1-(2-hydroxyethyl)-1H-pyrazol-3-yl)methyl)-6-((5-methoxypyridin-2-yl)sulfonyl)phthalazin-1(2H)-one] | 86.6% | 285 nM |
| Cc1cn(CCO)nc1Cn1ncc2cc(S(=O)(=O)c3ccccc3)ccc2c1=O [Example 16, 2-((1-(2-hydroxyethyl)-4-methyl-1H-pyrazol-3-yl)methyl)-6-(phenylsulfonyl)phthalazin-1(2H)-one] | 92.6% | 154 nM |
| Nc1cccc(Cn2ncc3cc(S(=O)(=O)c4ccc5c(c4)CCO5)ccc3c2=O)c1 [Example 143, 2-(3-aminobenzyl)-6-((2,3-dihydrobenzofuran-5-yl)sulfonyl)phthalazin-1(2H)-one] | 104% | 27.7 nM |
| COC(C)c1nc(S(=O)(=O)c2ccc3c(=O)n(Cc4cc5n(n4)CCO5)ncc3c2)cs1 (stereo not drawn) [Example 356] | 95.5% | 53 nM |
| COC(C)c1nc(S(=O)(=O)c2ccc3c(=O)n(Cc4cc[nH]n4)ncc3c2)cs1 (stereo not drawn) [Example 351] | 103% | 93.9 nM |
| Cn1ccc(S(=O)(=O)c2ccc3c(=O)n(Cc4cc[nH]n4)ncc3c2)n1 [Example 306] | 104% | 241 nM |
| Cc1c(Cn2ncc3cc(S(=O)(=O)c4cn[nH]c4)ccc3c2=O)nn2c1OCC2 [Example 362] | 105% | 42 nM |
| COc1ccc(Cn2ncc3cc([S@@](=N)(=O)c4ccccc4)ccc3c2=O)cn1 (single isomer, unassigned) [Example 133] | 77.3% | 444 nM |
| Cc1[nH]nc(Cn2ncc3cc(S(=O)(=O)c4cnn(C(F)F)c4)ccc3c2=O)c1Cl [Example 349] | 92.5% | 45.3 nM |
| O=c1c2ccc(S(=O)(=O)c3ccccc3)cc2cnn1Cc1cc2n(n1)CCO2 [Example 27, 2-((2,3-dihydropyrazolo[5,1-b]oxazol-6-yl)methyl)-6-(phenylsulfonyl)phthalazin-1(2H)-one] | 122% | 70 nM |
| COc1ccc(Cn2ncc3cc(S(=O)(=O)c4ccn(CCO)n4)ccc3c2=O)cn1 [Example 280, 6-((1-(2-hydroxyethyl)-1H-pyrazol-3-yl)sulfonyl)-2-((6-methoxypyridin-3-yl)methyl)phthalazin-1(2H)-one] | 89.2% | 120 nM |
| COc1ccc(S(=O)(=O)c2ccc3c(=O)n(Cc4ccc(OC)nc4O)ncc3c2)cc1 [Example 109, 2-((2-hydroxy-6-methoxypyridin-3-yl)methyl)-6-(4-methoxyphenylsulfonyl)phthalazin-1(2H)-one] | 96.5% | 141 nM |
| COc1ccc(Cn2ncc3cc(S(=O)(=O)c4ccc(Cl)cc4)ccc3c2=O)cn1 [Example 155, 6-((4-chlorophenyl)sulfonyl)-2-((6-methoxypyridin-3-yl)methyl)phthalazin-1(2H)-one] | 71.6% | 184 nM |
| COc1ccc(Cn2ncc3cc(S(=O)(=O)c4cn[nH]c4)ccc3c2=O)nc1C [Example 291, 6-(1H-pyrazol-4-ylsulfonyl)-2-((5-methoxy-6-methylpyridin-2-yl)methyl)phthalazin-1(2H)-one] | 82.8% | 988 nM |
| Cc1ccc(S(=O)(=O)c2ccc3c(=O)n(Cc4cc[nH]n4)ncc3c2)nc1 [Example 289, 2-((1H-pyrazol-3-yl)methyl)-6-((5-methylpyridin-2-yl)sulfonyl)phthalazin-1(2H)-one] | 91.8% | 319 nM |
| Cc1coc2ccc(S(=O)(=O)c3ccc4c(=O)n(Cc5cc[nH]n5)ncc4c3)cc12 [Example 220, 2-((1H-pyrazol-3-yl)methyl)-6-((3-methylbenzofuran-5-yl)sulfonyl)phthalazin-1(2H)-one] | 84.7% | 67.7 nM |
| Cc1c[nH]nc1Cn1ncc2cc(S(=O)(=O)c3ccc4c(c3)CCO4)ccc2c1=O [Example 208, 6-((2,3-dihydrobenzofuran-5-yl)sulfonyl)-2-((4-methyl-1H-pyrazol-3-yl)methyl)phthalazin-1(2H)-one] | 104% | 33.3 nM |
| COc1ccc(Cn2ncc3cc(S(=N)(=O)c4ccccc4)ccc3c2=O)cn1 (racemic) [Example 131, 2-((6-methoxypyridin-3-yl)methyl)-6-(phenylsulfonimidoyl)phthalazin-1(2H)-one] | 99.7% | 300 nM |
| COc1ccc(S(=O)(=O)c2ccc3c(=O)n(Cc4ccc(OC)nc4)ncc3c2)nc1 [Example 172, 6-(5-methoxypyridin-2-ylsulfonyl)-2-((6-methoxypyridin-3-yl)methyl)phthalazin-1(2H)-one] | 84.1% | 61.9 nM |
| COc1ccc(Cn2ncc3cc(S(=O)(=O)c4cccc(Cl)c4)ccc3c2=O)cn1 [Example 154, 6-((3-chlorophenyl)sulfonyl)-2-((6-methoxypyridin-3-yl)methyl)phthalazin-1(2H)-one] | 93.7% | 141 nM |
